Data from the CheMixHub ionic liquid set.

Assay: xn = mol fraction of the nth substance listed
Conditions: 298.15 K, 101 kPa

CCCCCC[n+]1ccn(C)c1.N#C[S-] + [Br-].[Li+] + CN1CCCC1=O
Conditions | viscosity [mPa·s]
x1 = 0.001485, x2 = 0.05195 | 3.247
x1 = 0.00149, x2 = 0.02731 | 2.398
x1 = 0.001549, x2 = 0.07614 | 4.405
x1 = 0.003034, x2 = 0.02727 | 2.411
x1 = 0.003327, x2 = 0.07601 | 4.433
x1 = 0.003386, x2 = 0.05185 | 3.276
x1 = 0.004842, x2 = 0.05177 | 3.304
x1 = 0.004935, x2 = 0.02722 | 2.44
x1 = 0.004954, x2 = 0.07588 | 4.462
x1 = 0.005883, x2 = 0.02719 | 2.46
x1 = 0.006254, x2 = 0.0517 | 3.332
x1 = 0.006429, x2 = 0.07577 | 4.49
x1 = 0.007608, x2 = 0.02715 | 2.485
x1 = 0.007678, x2 = 0.07567 | 4.518
x1 = 0.007769, x2 = 0.05162 | 3.36
x1 = 0.009204, x2 = 0.07556 | 4.575
x1 = 0.009231, x2 = 0.05154 | 3.388
x1 = 0.009463, x2 = 0.0271 | 2.489
x1 = 0.009859, x2 = 0.05151 | 3.416
x1 = 0.01038, x2 = 0.02707 | 2.534
x1 = 0.01063, x2 = 0.07545 | 4.603
x1 = 0.01211, x2 = 0.02702 | 2.541
x1 = 0.01221, x2 = 0.07533 | 4.631
x1 = 0.01242, x2 = 0.05138 | 3.444

CCCCCCCCn1cc[n+](C)c1.N#C[S-] + [Cl-].[Li+] + CN1CCCC1=O
Conditions | viscosity [mPa·s]
x1 = 0.001139, x2 = 0.07166 | 3.748
x1 = 0.001259, x2 = 0.03751 | 2.694
x1 = 0.001303, x2 = 0.1042 | 5.098
x1 = 0.002343, x2 = 0.1041 | 5.122
x1 = 0.002465, x2 = 0.07157 | 3.763
x1 = 0.002516, x2 = 0.03747 | 2.708
x1 = 0.00365, x2 = 0.104 | 5.151
x1 = 0.003672, x2 = 0.03742 | 2.735
x1 = 0.003977, x2 = 0.07146 | 3.796
x1 = 0.004888, x2 = 0.1039 | 5.175
x1 = 0.005019, x2 = 0.03737 | 2.761
x1 = 0.005107, x2 = 0.07138 | 3.83
x1 = 0.00605, x2 = 0.1038 | 5.201
x1 = 0.006235, x2 = 0.0713 | 3.857
x1 = 0.006361, x2 = 0.03732 | 2.789
x1 = 0.007163, x2 = 0.1036 | 5.219
x1 = 0.00736, x2 = 0.07122 | 3.892
x1 = 0.007605, x2 = 0.03728 | 2.811
x1 = 0.00842, x2 = 0.1035 | 5.236
x1 = 0.00867, x2 = 0.07112 | 3.932
x1 = 0.008845, x2 = 0.03723 | 2.84
x1 = 0.009774, x2 = 0.1034 | 5.256
x1 = 0.009789, x2 = 0.07104 | 3.97
x1 = 0.01008, x2 = 0.03718 | 2.854

CCCCCC[n+]1ccn(C)c1.N#C[S-] + [Cl-].[Li+] + CN1CCCC1=O
Conditions | viscosity [mPa·s]
x1 = 0.001304, x2 = 0.1036 | 5.036
x1 = 0.001343, x2 = 0.0415 | 2.652
x1 = 0.001443, x2 = 0.07122 | 3.694
x1 = 0.002891, x2 = 0.1035 | 5.064
x1 = 0.002967, x2 = 0.07111 | 3.723
x1 = 0.00301, x2 = 0.04143 | 2.691
x1 = 0.004262, x2 = 0.1033 | 5.092
x1 = 0.004468, x2 = 0.071 | 3.75
x1 = 0.004767, x2 = 0.04136 | 2.745
x1 = 0.00607, x2 = 0.1032 | 5.12
x1 = 0.006095, x2 = 0.07088 | 3.806
x1 = 0.00649, x2 = 0.04129 | 2.765
x1 = 0.007465, x2 = 0.07079 | 3.848
x1 = 0.007616, x2 = 0.04124 | 2.776
x1 = 0.007643, x2 = 0.103 | 5.148
x1 = 0.008578, x2 = 0.07071 | 3.887
x1 = 0.008753, x2 = 0.1029 | 5.176
x1 = 0.009233, x2 = 0.04117 | 2.794
x1 = 0.01021, x2 = 0.1027 | 5.204
x1 = 0.0105, x2 = 0.04112 | 2.823
x1 = 0.0108, x2 = 0.07055 | 3.923
x1 = 0.01107, x2 = 0.1026 | 5.231
x1 = 0.01163, x2 = 0.04107 | 2.837
x1 = 0.01204, x2 = 0.07046 | 3.961
